Measured values taken from paper PMC4414711 (Chemico-biological interactions, 2014).
Like-named read-outs stand apart in the source and are kept apart here.

Assays:
[1] = molecular target: T1, AKR1C3 (Homo sapiens, UniProt P42330); settings: for IC50 Ratio 1C2:1C3: selectivity, ratio of IC50 values AKR1C2 to AKR1C3
T1 sequence (P42330 1-323): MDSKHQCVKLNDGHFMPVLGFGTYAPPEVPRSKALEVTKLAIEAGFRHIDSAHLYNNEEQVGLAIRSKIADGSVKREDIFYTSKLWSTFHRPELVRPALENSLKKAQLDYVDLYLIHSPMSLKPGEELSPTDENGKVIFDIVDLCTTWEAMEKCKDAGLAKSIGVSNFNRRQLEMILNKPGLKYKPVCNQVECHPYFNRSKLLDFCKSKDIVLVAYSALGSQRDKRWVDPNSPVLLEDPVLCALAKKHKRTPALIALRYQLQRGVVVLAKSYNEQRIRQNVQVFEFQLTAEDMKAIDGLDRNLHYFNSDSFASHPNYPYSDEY

[2] = molecular target: T2, AKR1C2 (Homo sapiens, UniProt P52895)
T2 sequence (P52895 1-323): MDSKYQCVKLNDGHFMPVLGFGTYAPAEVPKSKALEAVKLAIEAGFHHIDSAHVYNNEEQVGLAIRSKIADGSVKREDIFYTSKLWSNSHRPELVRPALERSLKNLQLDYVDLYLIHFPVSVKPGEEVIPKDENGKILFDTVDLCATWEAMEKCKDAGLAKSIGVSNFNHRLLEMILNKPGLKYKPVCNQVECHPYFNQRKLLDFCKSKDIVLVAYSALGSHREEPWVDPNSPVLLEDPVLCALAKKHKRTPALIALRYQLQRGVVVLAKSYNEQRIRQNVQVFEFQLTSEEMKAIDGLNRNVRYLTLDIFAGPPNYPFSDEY

[3] = read-out: 1C3 IC50, recombinant AKR1C3, S-tetralol 165 μM (= Km), NADP+
[4] = read-out: 1C2 IC50, recombinant AKR1C2, S-tetralol 15 μM (= Km), NADP+

## CC(C)(C)OC(=O)C=Cc1ccc(OC(=O)CCc2ccccc2)cc1 (mixture of isomers) [Compound 13, (Z/E)-tert-butyl 3-(4-(3-phenylpropanoyloxy)phenyl)acrylate]
[1]; [3]
  IC50: 632 µM
[1]
  IC50 Ratio 1C2:1C3: 0.04
[2]; [4]
  IC50: 27 µM

## O=C(O)C=Cc1ccc(OC(=O)CCc2ccccc2)cc1 (mixture of isomers) [Compound 10, (Z/E)-3-(4-((3-phenylpropanoyl)oxy)phenyl)acrylic acid]
[1]; in comparison to compound 8
  decrease of the inhibitory selectivity: 1.7 fold
[1]; [3]
  IC50: 2.3 µM
[1]
  IC50 Ratio 1C2:1C3: 11
[2]; [4]
  IC50: 25 µM

## (2E)-3-(3,3-dimethyl-3,4-dihydro-2H-1-benzopyran-6-yl)prop-2-enoate [Compound 5]
[1]; [3]
  IC50: 21 µM
[1]; relative to compound 4
  further decrease of inhibitory potency for AKR1C3: 2 fold
[1]
  IC50 Ratio 1C2:1C3: 1
[2]; [4]
  IC50: 14 µM
[2]; relative to compound 4
  further decrease of inhibitory potency for AKR1C2: 2 fold

## O=C(O)/C=C/c1ccc(OC(=O)c2ccccc2)cc1 [Compound 11, (2E)-3-[4-(benzoyloxy)phenyl]prop-2-enoic acid]
[1]
  IC50: 6.3 µM
  IC50 Ratio 1C2:1C3: 20
[2]
  IC50: 127 µM

## O=C(O)/C=C/c1cccc(OC(=O)CCc2ccccc2)c1 [Compound 9, (E)-3-(3-((3-phenylpropanoyl)oxy)phenyl)acrylic acid]
[1]
  IC50: 0.96 µM
  IC50 Ratio 1C2:1C3: 28
[1]; in comparison to compound 8
  increase of the inhibitory selectivity: 1.5 fold
[2]
  IC50: 27 µM

## O=C(O)/C=C/c1cccc(O)c1 [Compound 15, m-coumaric acid]
[1]; [3]
  IC50: 86 µM
[1]
  IC50 Ratio 1C2:1C3: 5
[2]; [4]
  IC50: 389 µM

## CC(C)=CCc1cc(/C=C/C(=O)OC(C)(C)C)ccc1OC(=O)CCc1ccccc1 [Compound 7, tert-butyl(2E)-3-[3-(3-methylbut-2-en-1-yl)-4-[(3-phenylpropanoyl)oxy]phenyl]prop-2-enoate]
[1]
  IC50: 607 µM
  IC50 Ratio 1C2:1C3: 0.3
[2]
  IC50: 153 µM

## O=C(O)/C=C/c1ccc(OC(=O)CCc2ccccc2)cc1 [Compound 8, (2E)-3-prop-2-enoic acid]
[1]; [3]
  IC50: 4.7 µM
[1]
  IC50 Ratio 1C2:1C3: 19
[2]; [4]
  IC50: 88 µM

## O=C(O)/C=C/c1ccc(OC(=O)c2ccncc2)cc1 [Compound 12, (2E)-3-[4-(pyridine-4-carbonyloxy)phenyl]prop-2-enoic acid]
[1]
  IC50: 68 µM
  IC50 Ratio 1C2:1C3: 1
[2]
  IC50: 88 µM

## O=C(O)/C=C/c1ccc(O)cc1 [Compound 14, p-coumaric acid]
[1]
  IC50: 199 µM
  IC50 Ratio 1C2:1C3: 7
[2]
  IC50: 1300 µM

## COc1cc(/C=C/C(=O)O)ccc1O [Compound 16, ferulic acid]
[1]; [3]
  IC50: 21 µM
[1]
  IC50 Ratio 1C2:1C3: 20
[2]; [4]
  IC50: 421 µM
